From patent US20240368109A1, “ALLOSTERIC MODULATORS OF NICOTINIC ACETYLCHOLINE RECEPTORS” (MERCK SHARP & DOHME LLC, priority 2021, published 2024)

Target: human α7 nAChR (Homo sapiens (Human), UniProt P36544)
Test: Automated patch-clamp electrophysiology functional assay (Assay A)
Type: cell-based
Conditions: IonFlux HT whole-cell population patch, HEK cells expressing human α7/RIC-3, 40 μM acetylcholine
In short: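 Whole-cell population patch clamp on HEK cells stably co-expressing human α7 and RIC-3, held at −60 mV, room temperature. Compounds tested at three ascending concentrations per recording with or without 40 μM acetylcholine; currents normalized to the 40 μM acetylcholine-evoked reference response to give agonist and potentiation EC50.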

Chain of human α7 nAChR (P36544 23-502): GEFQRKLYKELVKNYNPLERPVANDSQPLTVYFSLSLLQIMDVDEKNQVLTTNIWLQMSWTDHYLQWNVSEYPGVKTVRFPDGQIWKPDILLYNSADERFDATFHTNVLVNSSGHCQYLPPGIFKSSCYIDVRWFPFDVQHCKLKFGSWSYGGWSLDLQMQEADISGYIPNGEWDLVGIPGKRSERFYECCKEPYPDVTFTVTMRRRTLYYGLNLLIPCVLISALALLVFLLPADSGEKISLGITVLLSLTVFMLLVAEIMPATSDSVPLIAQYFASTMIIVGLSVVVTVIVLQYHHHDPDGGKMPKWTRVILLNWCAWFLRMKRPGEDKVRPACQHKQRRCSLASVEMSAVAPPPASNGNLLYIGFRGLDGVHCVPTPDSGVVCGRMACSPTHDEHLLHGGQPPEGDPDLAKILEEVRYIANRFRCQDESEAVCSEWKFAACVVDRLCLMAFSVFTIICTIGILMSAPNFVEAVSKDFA

Structure (SMILES) | EC50 (potency class) [µM] | EC50 (electrophysiology EC50 values) [µM]
O=C(NCc1nc2ccccc2s1)C1C2Oc3ccc(F)cc3C21 (stereo not drawn) [Example C28, 2-{[(exo-5-fluoro-1a,6b-dihydro-1H-cyclopropa[b][1]benzofuran-1-carbonyl)amino]methyl}-1,3-benzothiazole] | 0.5 to 5 | –
COC(=O)C(NC(=O)C1C2Oc3ccc(F)cc3C21)c1cccc(Cl)c1 (stereo not drawn) [Example C29, methyl 2-(3-chlorophenyl)-2-[(exo-5-fluoro-1a,6b-dihydro-1H-cyclopropa[b][1]benzofuran-1-carbonyl)amino]acetate] | 0.5 to 5 | 1.8
O=C(N[C@@H](CCO)c1ccc(F)cc1)C1C2Oc3ccc(F)cc3C21 (stereo partly drawn) [Example C30, exo-5-fluoro-N-[(1S)-1-(4-fluorophenyl)-3-hydroxypropyl]-1a,6b-dihydro-1H-cyclopropa[b][1]benzofuran-1-carboxamide] | 0.5 to 5 | 2.8
Cc1ccccc1CNC(=O)C1C2Oc3ccc(F)cc3C21 (stereo not drawn) [Example C31, exo-5-fluoro-N-[(2-methylphenyl)methyl]-1a,6b-dihydro-1H-cyclopropa[b][1]benzofuran-1-carboxamide] | 0.5 to 5 | 1.8
O=C(NCc1cc(-c2ccccc2)no1)C1C2Oc3ccc(F)cc3C21 (stereo not drawn) [Example C32, exo-5-fluoro-N-[(3-phenyl-1,2-oxazol-5-yl)methyl]-1a,6b-dihydro-1H-cyclopropa[b][1]benzofuran-1-carboxamide] | 0.1 to 0.5 | 0.19
O=C(NCc1n[nH]c2c1CCCCC2)[C@H]1[C@@H]2Oc3ccc(F)cc3[C@@H]21 [Example C33, 3-{[(exo-5-fluoro-1a,6b-dihydro-1H-cyclopropa[b][1]benzofuran-1-carbonyl)amino]methyl}-1,4,5,6,7,8-hexahydrocyclohepta[c]pyrazole] | 0.5 to 5 | –
O=C(NCc1ccc(Oc2ccccn2)cc1)C1C2Oc3ccc(F)cc3C21 (stereo not drawn) [Example C34, exo-5-fluoro-N-({4-[(pyridin-2-yl)oxy]phenyl}methyl)-1a,6b-dihydro-1H-cyclopropa[b][1]benzofuran-1-carboxamide] | 0.5 to 5 | 0.81
O=C(NCc1cccc(-c2ncco2)c1)C1C2Oc3ccc(F)cc3C21 (stereo not drawn) [Example C35, exo-5-fluoro-N-{[3-(1,3-oxazol-2-yl)phenyl]methyl}-1a,6b-dihydro-1H-cyclopropa[b][1]benzofuran-1-carboxamide] | 0.5 to 5 | 2.4
C[C@H](NC(=O)C1C2Oc3ccc(F)cc3C21)c1cccc2ncccc12 (stereo partly drawn) [Example C36, 5-{(1S)-1-[(exo-5-fluoro-1a,6b-dihydro-1H-cyclopropa[b][1]benzofuran-1-carbonyl)amino]ethyl}quinoline] | 0.5 to 5 | 1.3
CC(NC(=O)C1C2Oc3ccc(F)cc3C21)c1ccc(Br)cc1 (stereo not drawn) [Example C37, exo-N-[1-(4-bromophenyl)ethyl]-5-fluoro-1a,6b-dihydro-1H-cyclopropa[b][1]benzofuran-1-carboxamide] | 0.5 to 5 | 1.8
O=C(NCc1ccc2cnccc2c1)C1C2Oc3ccc(F)cc3C21 (stereo not drawn) [Example C38, 6-{[(exo-5-fluoro-1a,6b-dihydro-1H-cyclopropa[b][1]benzofuran-1-carbonyl)amino]methyl}isoquinoline] | 0.5 to 5 | 4.7
O=C(NC(c1ccccc1)c1ccncc1)[C@@H]1[C@H]2Oc3ccc(F)cc3[C@H]21 (stereo partly drawn) [Example C39, 4-{[(exo-5-fluoro-1a,6b-dihydro-1H-cyclopropa[b][1]benzofuran-1-carbonyl)amino](phenyl)methyl}pyridine] | 0.5 to 5 | –
O=C(NCc1ccccc1OCC1CC1)C1C2Oc3ccc(F)cc3C21 (stereo not drawn) [Example C40, exo-N-{[2-(cyclopropylmethoxy)phenyl]methyl}-5-fluoro-1a,6b-dihydro-1H-cyclopropa[b][1]benzofuran-1-carboxamide] | 0.5 to 5 | 0.62
O=C(NCc1nc(Br)no1)C1C2Oc3ccc(F)cc3C21 (stereo not drawn) [Example C41, exo-N-[(3-bromo-1,2,4-oxadiazol-5-yl)methyl]-5-fluoro-1a,6b-dihydro-1H-cyclopropa[b][1]benzofuran-1-carboxamide] | 0.5 to 5 | –
O=C(NCc1nc(Cc2ccccc2)no1)C1C2Oc3ccc(F)cc3C21 (stereo not drawn) [Example C42, exo-N-[(3-benzyl-1,2,4-oxadiazol-5-yl)methyl]-5-fluoro-1a,6b-dihydro-1H-cyclopropa[b][1]benzofuran-1-carboxamide] | 5 to 50 | 6.6
CC(NC(=O)C1C2Oc3ccc(F)cc3C21)c1ccno1 (stereo not drawn) [Example C43, exo-5-fluoro-N-[1-(1,2-oxazol-5-yl)ethyl]-1a,6b-dihydro-1H-cyclopropa[b][1]benzofuran-1-carboxamide] | 0.5 to 5 | 1.9
COc1ccc(-c2cc(CNC(=O)C3C4Oc5ccc(F)cc5C43)on2)cc1 (stereo not drawn) [Example C44, exo-5-fluoro-N-{[3-(4-methoxyphenyl)-1,2-oxazol-5-yl]methyl}-1a,6b-dihydro-1H-cyclopropa[b][1]benzofuran-1-carboxamide] | 5 to 50 | –
COc1cc(CNC(=O)C2C3Oc4ccc(F)cc4C32)on1 (stereo not drawn) [Example C45, exo-5-fluoro-N-[(3-methoxy-1,2-oxazol-5-yl)methyl]-1a,6b-dihydro-1H-cyclopropa[b][1]benzofuran-1-carboxamide] | 5 to 50 | –
O=C(NCc1cc(-c2ccccn2)no1)C1C2Oc3ccc(F)cc3C21 (stereo not drawn) [Example C46, exo-5-fluoro-N-{[3-(pyridin-2-yl)-1,2-oxazol-5-yl]methyl}-1a,6b-dihydro-1H-cyclopropa[b][1]benzofuran-1-carboxamide] | 0.5 to 5 | 0.52
O=C(NCc1cc(Br)no1)C1C2Oc3ccc(F)cc3C21 (stereo not drawn) [Example C47, exo-N-[(3-bromo-1,2-oxazol-5-yl)methyl]-5-fluoro-1a,6b-dihydro-1H-cyclopropa[b][1]benzofuran-1-carboxamide] | 0.5 to 5 | –
O=C(NCc1cc(-c2ccccc2)no1)C1C2Oc3ccc(F)cc3C21 (stereo not drawn) [Example C48, exo-5-fluoro-N-[(3-phenyl-1,2-oxazol-5-yl)methyl]-1a,6b-dihydro-1H-cyclopropa[b][1]benzofuran-1-carboxamide] | 0.5 to 5 | 0.55
O=C(NCc1noc(-c2ccccc2)n1)C1C2Oc3ccc(F)cc3C21 (stereo not drawn) [Example C49, exo-5-fluoro-N-[(5-phenyl-1,2,4-oxadiazol-3-yl)methyl]-1a,6b-dihydro-1H-cyclopropa[b][1]benzofuran-1-carboxamide] | 0.1 to 0.5 | 0.27
O=C(NCc1nnc(-c2ccccc2)o1)C1C2Oc3ccc(F)cc3C21 (stereo not drawn) [Example C50, exo-5-fluoro-N-[(5-phenyl-1,3,4-oxadiazol-2-yl)methyl]-1a,6b-dihydro-1H-cyclopropa[b][1]benzofuran-1-carboxamide] | 0.1 to 0.5 | 0.48
COc1ccc(-c2noc(CNC(=O)C3C4Oc5ccc(F)cc5C43)n2)cn1 (stereo not drawn) [Example C51, exo-5-fluoro-N-{[3-(6-methoxypyridin-3-yl)-1,2,4-oxadiazol-5-yl]methyl}-1a,6b-dihydro-1H-cyclopropa[b][1]benzofuran-1-carboxamide] | 0.5 to 5 | 1
O=C(NCc1cc(-c2ccc(Cl)cc2)no1)C1C2Oc3ccc(F)cc3C21 (stereo not drawn) [Example C52, exo-N-{[3-(4-chlorophenyl)-1,2-oxazol-5-yl]methyl}-5-fluoro-1a,6b-dihydro-1H-cyclopropa[b][1]benzofuran-1-carboxamide] | 0.5 to 5 | –
O=C(NCc1nc(-c2ccccc2)no1)C1C2Oc3ccc(F)cc3C21 (stereo not drawn) [Example C53, exo-5-fluoro-N-[(3-phenyl-1,2,4-oxadiazol-5-yl)methyl]-1a,6b-dihydro-1H-cyclopropa[b][1]benzofuran-1-carboxamide] | 0.5 to 5 | 1.5
